Read-outs that look alike come from different tables or passages of the source.
Assays:
[1] = system: CHO cells; experiment: Protein translation assay (puromycin incorporation in CHO cells, unstressed or Tg-stressed); type: cell-based, Chinese hamster; details: for activity at 0.1 µM / activity at 1 µM: Cricetulus griseus, media alone 100%; for activity at 0.1 µM: read-out: % Recovery of protein expression (100 nM test compound)
Method: CHO cells were maintained at 37° C. and 5% CO2 in DMEM supplemented with 10% fetal bovine serum (FBS), 2 mM L-glutamine, 100 U/ml penicillin, and 100 μg/ml streptomycin. After reaching 80% of confluence, cells were detached and seeded on 6 well plates in complete media, allowed to recover overnight and treated for 2 hours with 1 μM of the test compound (to assess protein synthesis levels in unstressed condition), or for 1 hour with 100 nM and 1 μM of the test compound and then co-treated with 300 nM Tg and 100 nM and 1 μM of the test compound (to assess the recovery of protein synthesis in a stressed condition). Cells treated with Tg alone were used as controls.
After the 2 hours treatments, media were replaced by adding 10 μg/ml puromycin (Sigma Aldrich) in complete media for 30 min. Media were removed and cells were lysed with SDS-PAGE lysis buffer. Lysates were transferred to 1.5 ml tubes and sonicated for 3 minutes and total protein amount were quantified using BCA Protein Assay Kit (Pierce). Equal amount of protein (30 μg) was loaded on SDS-PAGE gels. Proteins were transferred onto 0.2 μm PVDF membranes (BioRad) and probed with primary antibodies diluted in Tris-buffered saline supplemented with 0.1% Tween 20 and 3% bovine serum albumin.
(§1) Puromycin (12D10) antibody was used as primary antibody (Merck Millipore). A HRP-conjugated secondary antibody (Rockland) was employed to detect immune-reactive bands using enhanced chemiluminescence (ECL Western Blotting Substrate, Pierce). Quantification of protein bands was done by densitometry using ImageJ.
Percent increase of protein synthesis in unstressed cells (without Tg treatment) in the presence of media alone or certain test compounds is shown in Table 3 and FIG. 2. The percentage levels were normalized to the media alone condition, which correspond to 100% protein synthesis.
Percent recovery of protein synthesis in stressed cells (with Tg treatment) due to the test compounds at 100 nM or 1 μM is shown in FIGS. 3A and 3B, respectively, and in Table 3. The levels were normalized to the media alone and to Tg alone conditions, which correspond to 100% and 0% respectively.

[2] = system: ATF4; experiment: ATF4 expression inhibition assay (thapsigargin-stressed HEK293T cells, western blot); type: cell-based; details: Homo sapiens, HEK-293T; for IC50: 3 h with 100 nM Tg, test compound 1 nM to 1 μM; for inhibition at 0.1 µM: 3 h with 100 nM thapsigargin (Tg) and 100 nM test compound; for inhibition at 0.1 µM / inhibition at 1 µM: Tg alone 0%, untreated 100%; for inhibition at 1 µM: 3 h with 100 nM thapsigargin (Tg) and 1 μM test compound
Method: HEK293T cells were maintained at 37° C. and 5% CO2 in Dulbecco's Modified Eagle's Media (DMEM) supplemented with 10% fetal bovine serum (FBS), 2 mM L-glutamine, 100 U/ml penicillin, and 100 μg/ml streptomycin. […] Cells without treatment or cells treated with Tg alone were used as controls.
After 3 hours of treatment with Tg and the test compound, cells were lysed with SDS-PAGE lysis buffer. Lysates were transferred to 1.5 ml tubes and sonicated for 3 min, and total protein amounts were quantified using BCA Protein Assay Kit (Pierce). Equal amount of proteins were loaded on SDS-PAGE gels. Proteins were transferred onto 0.2 μm PVDF membranes (BioRad) and probed with primary antibodies diluted in Tris-buffered saline supplemented with 0.1% Tween 20 and 3% bovine serum albumin.
as §1, with “ATF4 (11815)” for “Puromycin (12D10)”, “(Cell Signaling Technologies).” for “(Merck Millipore).”, “horseradish peroxidase (HRP)-conjugated” for “HRP-conjugated”
Percentages of ATF4 inhibition after induction with Tg in the presence of 100 nM or 1 μM of certain test compounds are shown in Table 2 and FIG. 1. Percentage of ATF4 inhibition was calculated as the percent reduction normalized to Tg treatment (0% inhibition) and untreated cells (100% inhibition). Also shown in Table 2 is the calculated IC50 for the test compounds. […] Accordingly, inhibition of ATF4 expression as a result of the test compound indicates suppression of the ISR pathway.

[3] = CHO cells stressed with 300 nM Tg, Tg alone 0%
[4] = CHO cells stressed with 300 nM Tg, Tg alone 0%, read-out: % Recovery of protein expression (1 μM test compound)
[5] = unstressed CHO cells, 2 h, read-out: % Protein expression relative to untreated (1 μM test compound)

Compound	IC50 [2] [nM]	activity at 0.1 µM [1, 3] [%]	activity at 1 µM [1, 4] [%]	activity at 1 µM [1, 5] [%]	inhibition at 0.1 µM [2] [%]	inhibition at 1 µM [2] [%]	protein translation ([1]; summary of Table 3)	protein synthesis in a cell versus ATF4 translation ([1]; under ISR-stressed or non-ISR stressed conditions)
O=C(COc1ccc(Cl)c(F)c1)NC1CCN(CCCOc2ccc(Cl)c(F)c2)CC1 [Compound 28, 2-(4-chloro-3-fluorophenoxy)-N-(1-(3-(4-chloro-3-fluorophenoxy)propyl)piperidin-4-yl)acetamide]	25.8	38	170	99.3	88	97	–	–
O=C(N[C@H]1CC[C@H](NCCOc2ccc(Cl)c(F)c2)CC1)c1ccc2cc(Cl)ccc2n1 [Compound 31, trans-6-chloro-N-(4-((2-(4-chloro-3-fluorophenoxy)ethyl)amino)cyclohexyl)quinoline-2-carboxamide]	–	25	288	243	41	93	–	–
O=C(N[C@H]1CC[C@H](NCCOc2ccc(Cl)c(F)c2)CC1)c1cc2cc(Cl)ccc2o1 [Compound 32, trans-5-chloro-N-(4-((2-(4-chloro-3-fluorophenoxy)ethyl)amino)cyclohexyl)benzofuran-2-carboxamide]	–	37.7	234	137	38	78	–	–
O=C(NC1CCN(CCCOc2ccc(Cl)c(F)c2)CC1)c1cc2cc(Cl)ccc2o1 [Compound 148, 5-chloro-N-(1-(3-(4-chloro-3-fluorophenoxy)propyl)piperidin-4-yl)benzofuran-2-carboxamide]	–	37.2	250	123	30	90	–	–

More lines, main results first:

IC50 [2] [nM]	Compound	activity at 0.1 µM [1, 3] [%]	activity at 1 µM [1, 4] [%]	activity at 1 µM [1, 5] [%]	inhibition at 0.1 µM [2] [%]	inhibition at 1 µM [2] [%]	protein translation ([1]; summary of Table 3)	protein synthesis in a cell versus ATF4 translation ([1]; under ISR-stressed or non-ISR stressed conditions)
51.8	O=C(NC1CCN(CC(O)COc2ccc(Cl)c(F)c2)CC1)c1cc2cc(Cl)ccc2o1 (centres unmarked) [Compound 29, 5-chloro-N-(1-(3-(4-chloro-3-fluorophenoxy)-2-hydroxypropyl)piperidin-4-yl)benzofuran-2-carboxamide]	48.4	267	186	87	95	–	–
> 3000	O=C(N[C@H]1CC[C@H](NCC(O)COc2ccc(Cl)c(F)c2)CC1)c1ccc2cc(Cl)ccc2n1 (stereo partly drawn) [Compound 30, trans-6-chloro-N-(4-((3-(4-chloro-3-fluorophenoxy)-2-hydroxypropyl)amino)cyclohexyl)quinoline-2-carboxamide]	23.1	182	206	35	35	increased protein translation	increase protein synthesis in a cell without full inhibition of ATF4 translation
17.1	O=C(COc1ccc(Cl)c(F)c1)N[C@H]1CC[C@H](NC(=O)c2ccc3cc(Cl)ccc3c2)CC1 [Compound 145, trans-6-chloro-N-(4-(2-(4-chloro-3-fluorophenoxy)acetamido)cyclohexyl)-2-naphthamide]	22.6	40.6	95.4	97	97	–	–
49.9	O=C(NC1CCN(CCCOc2ccc(Cl)c(F)c2)CC1)c1ccc2cc(Cl)ccc2n1 [Compound 146, 6-chloro-N-(1-(3-(4-chloro-3-fluorophenoxy)propyl)piperidin-4-yl)quinoline-2-carboxamide]	43.4	265	246	88	100	–	–
33.1	O=C(N[C@H]1CC[C@H](NCC(O)COc2ccc(Cl)c(F)c2)CC1)c1cc2cc(Cl)ccc2o1 (stereo partly drawn) [Compound 147, trans-5-chloro-N-(4-((3-(4-chloro-3-fluorophenoxy)-2-hydroxypropyl)amino)cyclohexyl)benzofuran-2-carboxamide]	75.2	262	190	95	100	–	–
